From patent publication US10543212B2, “Substituted amines for treating cardiac diseases” (Cardurion Pharmaceuticals, LLC, priority 2017, dated 2020) come the findings set out here.

The target of this experiment is T1, Full-length, GST-tagged, human CaMKIIδ (Homo sapiens, UniProt Q13557).
T1 construct: Full-Length, Glutathione-S-Transferase(GST)-Tagged, Human CaMKIIδ was purchased from Carna Biosciences; purchased Carna Biosciences 02-111
Description: CaMKIIδ binding assay (TR-FRET with BODIPY-labeled probe ligand). A digest of the protocol: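 Compounds were tested as 4-fold, eight-point series for 1 hr at room temperature, and IC50 was obtained by logistic fitting against a 3 μM parent-compound control. Signal came from displacement of a 300 nM BODIPY ligand from 0.5 nM GST-CaMKIIδ, detected via Tb-anti-GST in calmodulin/Ca2+ (pH 7.6).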

[1] abbreviates: CaMKIIδ binding assay, results of Table 2.
[2] abbreviates: Table 2, CaMKIIδ binding assay, activity given as class A/B/C.
The mark [3] stands for this setting: Table 2, activity class for CaMKIIδ.
Where [4] appears, read: CaMKIIδ binding assay, activity class per Table 2.

Molecules are shown by their SMILES.

T1 sequence (Q13557 1-478 isoform Q13557-12): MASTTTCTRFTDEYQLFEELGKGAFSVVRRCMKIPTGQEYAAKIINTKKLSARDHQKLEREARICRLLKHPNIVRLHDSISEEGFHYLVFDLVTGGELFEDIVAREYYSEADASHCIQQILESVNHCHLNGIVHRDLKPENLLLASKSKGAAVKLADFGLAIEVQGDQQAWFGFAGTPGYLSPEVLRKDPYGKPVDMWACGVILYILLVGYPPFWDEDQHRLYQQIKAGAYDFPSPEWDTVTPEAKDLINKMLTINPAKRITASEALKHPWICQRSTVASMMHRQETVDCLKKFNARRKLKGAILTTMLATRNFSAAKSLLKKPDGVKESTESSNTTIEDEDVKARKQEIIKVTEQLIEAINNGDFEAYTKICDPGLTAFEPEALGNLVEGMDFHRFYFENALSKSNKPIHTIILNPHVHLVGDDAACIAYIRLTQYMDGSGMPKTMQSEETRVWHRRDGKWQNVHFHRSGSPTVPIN

`COc1cc2c(cc1Nc1ncc(-c3ccc(Cl)c(O[C@@H](C)Cn4cnnn4)c3)cn1)N(C(C)=O)CC2` [Example 466, (S)-1-(6-((5-(3-((1-(1H-tetrazol-1-yl)propan-2-yl)oxy)-4-chlorophenyl)pyrimidin-2-yl)amino)-5-methoxyindolin-1-yl)ethan-1-one] returned a 50% inhibitory concentration (IC50) under setting [1] of 10 to 100 nM.
As for `C[C@@H](Cn1cnnn1)Oc1cc(-c2cnc(Nc3cn([C@H]4CC[C@H](N5CCC(F)(F)C5)CC4)nc3OC3COC3)nc2)ccc1Cl` [Example 864, 5-(3-(((S)-1-(1H-tetrazol-1-yl)propan-2-yl)oxy)-4-chlorophenyl)-N-(1-(trans-4-(3,3-difluoropyrrolidin-1-yl)cyclohexyl)-3-(oxetan-3-yloxy)-1H-pyrazol-4-yl)pyrimidin-2-amine], the IC50 under setting [2] is less than 10 nM.
On the same count and under the same terms, for `C[C@@H](Cn1cnnn1)Oc1cc(-c2cnc(Nc3cn(CC(F)F)nc3OCC(F)(F)F)nc2)ccc1C#N` [Example 767, (S)-2-((1-(1H-tetrazol-1-yl)propan-2-yl)oxy)-4-(2-((1-(2,2-difluoroethyl)-3-(2,2,2-trifluoroethoxy)-1H-pyrazol-4-yl)amino)pyrimidin-5-yl)benzonitrile] the value was less than 10 nM.
In the case of `C[C@@H](Cn1cnnn1)Oc1cc(-c2cnc(Nc3cn(CC4CCN(C5COC5)C4)nc3C(F)(F)F)nc2)ccc1Cl` (stereo partly drawn) [Example 574, 5-(3-(((S)-1-(1H-tetrazol-1-yl)propan-2-yl)oxy)-4-chlorophenyl)-N-(1-((1-(oxetan-3-yl)pyrrolidin-3-yl)methyl)-3-(trifluoromethyl)-1H-pyrazol-4-yl)pyrimidin-2-amine], the 50% inhibitory concentration (IC50) under setting [1] was less than 10 nM.
Regarding `COc1cc2c(cc1Nc1ncc(-c3ccc(Cl)c(O[C@@H](C)Cn4cnnn4)c3)cn1)NCCC2` [Example 591, (S)-N-(5-(3-((1-(1H-tetrazol-1-yl)propan-2-yl)oxy)-4-chlorophenyl)pyrimidin-2-yl)-6-methoxy-1,2,3,4-tetrahydroquinolin-7-amine], the IC50 under setting [3] was less than 10 nM.
Under setting [3], `C[C@@H](Cn1cnnn1)Oc1cc(-c2cnc(Nc3cn(C4CCSCC4)nc3C(F)(F)F)nc2)ccc1Cl` [Example 663, (S)-5-(3-((1-(1H-tetrazol-1-yl)propan-2-yl)oxy)-4-chlorophenyl)-N-(1-(tetrahydro-2H-thiopyran-4-yl)-3-(trifluoromethyl)-1H-pyrazol-4-yl)pyrimidin-2-amine] showed an IC50 of 10 to 100 nM.
Consider `C[C@@H](CN1CCCC1=O)Oc1cc(-c2cnc(Nc3cn([C@H]4CC[C@H](N5CCOCC5)CC4)nc3C(F)(F)F)nc2)ccc1C#N` [Example 900, 4-(2-((1-(trans-4-morpholinocyclohexyl)-3-(trifluoromethyl)-1H-pyrazol-4-yl)amino)pyrimidin-5-yl)-2-(((S)-1-(2-oxopyrrolidin-1-yl)propan-2-yl)oxy)benzonitrile], for which the IC50 under setting [4] is 10 to 100 nM.
Consider `CCOC(=O)C1CCC(n2cc(Nc3ncc(-c4ccc(Cl)c(O[C@@H](C)Cn5cnnn5)c4)cn3)c(C(F)(F)F)n2)CC1` (stereo partly drawn) [Example 603, ethyl (S)-4-(4-((5-(3-((1-(1H-tetrazol-1-yl)propan-2-yl)oxy)-4-chlorophenyl)pyrimidin-2-yl)amino)-3-(trifluoromethyl)-1H-pyrazol-1-yl)cyclohexane-1-carboxylate], for which the half-inhibitory concentration (IC50) under setting [3] lay within 10 to 100 nM.
In turn, `CC(=O)OC(C)(C)CN1CC2(CC(n3cc(Nc4ncc(-c5ccc(Cl)c(O[C@@H](C)Cn6cnnn6)c5)cn4)c(C(F)(F)F)n3)C2)C1` [Example 974, (S)-1-(6-(4-((5-(3-((1-(1H-tetrazol-1-yl)propan-2-yl)oxy)-4-chlorophenyl)pyrimidin-2-yl)amino)-3-(trifluoromethyl)-1H-pyrazol-1-yl)-2-azaspiro[3.3]heptan-2-yl)-2-methylpropan-2-yl acetate] had a half-inhibitory concentration (IC50) under setting [4] of less than 10 nM.
As to `CC(C)c1nn(C2CC3(C2)CN(C2CCOCC2)C3)cc1Nc1ncc(-c2ccc(Cl)c(O[C@@H](C)Cn3cnnn3)c2)cn1` [Example 936, (S)-5-(3-((1-(1H-tetrazol-1-yl)propan-2-yl)oxy)-4-chlorophenyl)-N-(3-isopropyl-1-(2-(tetrahydro-2H-pyran-4-yl)-2-azaspiro[3.3]heptan-6-yl)-1H-pyrazol-4-yl)pyrimidin-2-amine], the IC50 under setting [4] is less than 10 nM.
Still for that read-out and setting: for `C[C@H](Cn1cnnn1)Oc1cc(-c2cnc(Nc3cn([C@H]4CC[C@@H](N5CCOCC5)CC4)nc3C(F)(F)F)nc2)ccc1Cl` [Example 896, 5-(3-(((R)-1-(1H-tetrazol-1-yl)propan-2-yl)oxy)-4-chlorophenyl)-N-(1-(cis-4-morpholinocyclohexyl)-3-(trifluoromethyl)-1H-pyrazol-4-yl)pyrimidin-2-amine] the value was no less than 100 nM.
On to `COc1ccc(N2CC(CN3CCOCC3)C2)cc1Nc1ncc(-c2ccc(Cl)c(O[C@@H](C)Cn3cnnn3)c2)cn1` [Example 656, (S)-5-(3-((1-(1H-tetrazol-1-yl)propan-2-yl)oxy)-4-chlorophenyl)-N-(2-methoxy-5-(3-(morpholinomethyl)azetidin-1-yl)phenyl)pyrimidin-2-amine], for which, under setting [3], the concentration for half-maximal inhibition (IC50) is less than 10 nM.
On the same count and under the same terms, the result for `COc1nc(N2CCN(CC3COC3)CC2)ccc1Nc1ncc(-c2ccc(Cl)c(O[C@@H](C)Cn3cnnn3)c2)cn1` [Example 639, (S)-5-(3-((1-(1H-tetrazol-1-yl)propan-2-yl)oxy)-4-chlorophenyl)-N-(2-methoxy-6-(4-(oxetan-3-ylmethyl)piperazin-1-yl)pyridin-3-yl)pyrimidin-2-amine] reads 10 to 100 nM.
Under setting [4], `COc1ccc(-n2cc(Nc3ncc(-c4ccc(Cl)c(O[C@@H](C)Cn5cnnn5)c4)cn3)c(OCC(F)(F)F)n2)cn1` [Example 901, (S)-5-(3-((1-(1H-tetrazol-1-yl)propan-2-yl)oxy)-4-chlorophenyl)-N-(1-(6-methoxypyridin-3-yl)-3-(2,2,2-trifluoroethoxy)-1H-pyrazol-4-yl)pyrimidin-2-amine] registered a 50% inhibitory concentration (IC50) of 10 to 100 nM.
As to `COc1cc2c(cc1Nc1ncc(-c3ccc(Cl)c(O[C@@H](C)Cn4cnnn4)c3)cn1)CCN(CC(C)=O)C2` [Example 479, (S)-1-(6-((5-(3-((1-(1H-tetrazol-1-yl)propan-2-yl)oxy)-4-chlorophenyl)pyrimidin-2-yl)amino)-7-methoxy-3,4-dihydroisoquinolin-2(1H)-yl)propan-2-one], the IC50 under setting [1] is less than 10 nM.
Under setting [4], `CC(C)c1nn(C2CC3(C2)CN(C(=O)OC(C)(C)C)C3)cc1Nc1ncc(-c2ccc(Cl)c(O[C@@H](C)Cn3cnnn3)c2)cn1` [Example 931, tert-butyl (S)-6-(4-((5-(3-((1-(1H-tetrazol-1-yl)propan-2-yl)oxy)-4-chlorophenyl)pyrimidin-2-yl)amino)-3-isopropyl-1H-pyrazol-1-yl)-2-azaspiro[3.3]heptane-2-carboxylate] returned an IC50 of 10 to 100 nM.
As for `COc1cc2c(cc1Nc1ncc(-c3ccc(C#N)c(O[C@@H](C)Cn4cnnn4)c3)cn1)C(=O)N(C1CCC1)C2` [Example 442, (S)-2-((1-(1H-tetrazol-1-yl)propan-2-yl)oxy)-4-(2-((2-cyclobutyl-6-methoxy-3-oxoisoindolin-5-yl)amino)pyrimidin-5-yl)benzonitrile], the IC50 under setting [1] is 10 to 100 nM.
Under setting [2], `C[C@@H](Cn1cnnn1)Oc1cc(-c2cnc(Nc3cn([C@H]4C[C@@H](NC5CCOCC5)C4)nc3OCC(F)F)nc2)ccc1Cl` [Example 850, (S)-5-(3-((1-(1H-tetrazol-1-yl)propan-2-yl)oxy)-4-chlorophenyl)-N-(3-(2,2-difluoroethoxy)-1-(cis-3-((tetrahydro-2H-pyran-4-yl)amino)cyclobutyl)-1H-pyrazol-4-yl)pyrimidin-2-amine] yielded a concentration for half-maximal inhibition (IC50) of less than 10 nM.
